# Measured values reported in patent US6914045B2, “Glycopeptide antibiotics” (Wyeth Holdings Corporation, priority 2001, dated 2005).
# Tests used:
# Assay in all cases: in vitro antibacterial evaluation, MIC by broth dilution
# Assay type in all cases: cell-based
# [1] = test system: Enterococcus sp.; conditions: broth dilution, 18 hours at 35° C.
# Summary of the method: (§1)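 MIC = lowest antibiotic concentration preventing visible growth; inoculum 5×10^5 CFU/mL; drug range 64-0.06 μg/mL; Muller-Hinton II […]; NCCLS M7-A2 guidance.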
# [2] = test system: Staphylococcus sp.; conditions: broth dilution, 18 hours at 35° C.
# Summary of the method: as §1
# [3] = test system: Streptococcus sp.; conditions: broth dilution, 18 hours at 35° C.
# Summary of the method: as §1
# [4] = test system: Escherichia coli; conditions: 18 hours at 35° C.
compound,measurement,setting,value
COc1ccc2cc(COC3C(OC4C(CO)OC(Oc5ccc(CC6NC(=O)C(C(C)c7ccccc7)NC(=O)CNC(=O)C(CO)NC(=O)C(CC7CNC(=N)N7C7OC(CO)C(O)C(O)C7O)NC(=O)C(CC7CNC(=N)N7)NC6=O)cc5)C(O)C4O)OC(CO)C(O)C3O)ccc2c1 (stereo not shown) [Example 245c],MIC Enterococcus avium (GC 4558),[1],>128 µg/mL
same,MIC Enterococcus faecalis (ATCC 29212),[1],>128 µg/mL
same,MIC Enterococcus faecalis (GC 2242),[1],>128 µg/mL
same,MIC Enterococcus faecalis (GC 2691),[1],>128 µg/mL
same,MIC Enterococcus faecalis (GC 3059),[1],>128 µg/mL
same,MIC Enterococcus faecalis (GC 4552),[1],>128 µg/mL
same,MIC Enterococcus faecalis (GC 4553),[1],>128 µg/mL
same,MIC Enterococcus faecalis (GC 4554),[1],>128 µg/mL
same,MIC Enterococcus faecalis (GC 6189),[1],>128 µg/mL
same,MIC Enterococcus faecium (GC 2243),[1],>128 µg/mL
same,MIC Enterococcus faecium (GC 4556),[1],>128 µg/mL
same,MIC Enterococcus faecium (GC 4557),[1],64 µg/mL
same,MIC Enterococcus faecalis (ATCC 29212),[1]; strain ATCC 29212,>128 µg/mL
same,MIC Enterococcus faecium (GC 2243),[1]; strain GC 2243,>128 µg/mL
same,MIC Enterococcus faecalis (GC 4552),[1]; strain GC 4552,>128 µg/mL
same,MIC Enterococcus faecalis (GC 4553),[1]; strain GC 4553,>128 µg/mL
same,MIC Enterococcus faecalis (GC 4554),[1]; strain GC 4554,>128 µg/mL
same,MIC Enterococcus faecium (GC 4556),[1]; strain GC 4556,>128 µg/mL
same,MIC Enterococcus faecium (GC 4557),[1]; strain GC 4557,64 µg/mL
same,MIC Enterococcus avium (GC 4558),[1]; strain GC 4558,>128 µg/mL
same,MIC Enterococcus faecalis (GC 6189),[1]; strain GC 6189,>128 µg/mL
same,MIC Enterococcus faecalis (GC 2242),"[1]; inoculum 5×10^5 CFU/mL, strain GC 2242",>128 µg/mL
same,MIC Enterococcus faecalis (GC 2691),"[1]; inoculum 5×10^5 CFU/mL, strain GC 2691",>128 µg/mL
same,MIC Enterococcus faecalis (GC 3059),"[1]; inoculum 5×10^5 CFU/mL, strain GC 3059",>128 µg/mL
same,MIC Coagulase Negative Staphylococcus (GC 4547),[2],128 µg/mL
same,MIC Coagulase Negative Staphylococcus (GC 4548),[2],128 µg/mL
same,MIC Coagulase Negative Staphylococcus (GC 4549),[2],64 µg/mL
same,MIC Coagulase Negative Staphylococcus (GC 4551),[2],128 µg/mL
same,MIC Coagulase Negative Staphylococcus (GC 6257),[2],64 µg/mL
same,MIC Staphylococcus aureus (ATCC 29213),[2],128 µg/mL
same,MIC Staphylococcus aureus (GC 1131),[2],>128 µg/mL
same,MIC Staphylococcus aureus (GC 3051),[2],128 µg/mL
same,MIC Staphylococcus aureus (GC 3053),[2],>128 µg/mL
same,MIC Staphylococcus aureus (GC 4541),[2],128 µg/mL
same,MIC Staphylococcus aureus (GC 4542),[2],128 µg/mL
same,MIC Staphylococcus aureus (GC 4544),[2],128 µg/mL
same,MIC Staphylococcus aureus (GC 4545),[2],128 µg/mL
same,MIC Staphylococcus aureus-SMITH (GC 4543),[2],128 µg/mL
same,MIC Staphylococcus haemolyticus (GC 4546),[2],128 µg/mL
same,MIC Staphylococcus aureus (ATCC 29213),[2]; strain ATCC 29213,128 µg/mL
same,MIC Staphylococcus aureus (GC 1131),[2]; strain GC 1131,>128 µg/mL
same,MIC Staphylococcus aureus (GC 3051),[2]; strain GC 3051,128 µg/mL
same,MIC Staphylococcus aureus (GC 3053),[2]; strain GC 3053,>128 µg/mL
same,MIC Staphylococcus aureus (GC 4541),[2]; strain GC 4541,128 µg/mL
same,MIC Staphylococcus aureus (GC 4542),[2]; strain GC 4542,128 µg/mL
same,MIC Staphylococcus aureus-SMITH (GC 4543),[2]; strain GC 4543,128 µg/mL
same,MIC Staphylococcus aureus (GC 4544),[2]; strain GC 4544,128 µg/mL
same,MIC Staphylococcus aureus (GC 4545),[2]; strain GC 4545,128 µg/mL
same,MIC Staphylococcus haemolyticus (GC 4546),[2]; strain GC 4546,128 µg/mL
same,MIC Coagulase Negative Staphylococcus (GC 4547),[2]; strain GC 4547,128 µg/mL
same,MIC Coagulase Negative Staphylococcus (GC 4548),[2]; strain GC 4548,128 µg/mL
same,MIC Coagulase Negative Staphylococcus (GC 4549),[2]; strain GC 4549,64 µg/mL
same,MIC Coagulase Negative Staphylococcus (GC 4551),[2]; strain GC 4551,128 µg/mL
same,MIC Coagulase Negative Staphylococcus (GC 6257),[2]; strain GC 6257,64 µg/mL
same,MIC Streptococcus agalactiae (GC 4564),[3],128 µg/mL
same,MIC Streptococcus pneumoniae (ATCC 6301),[3],64 µg/mL
same,MIC Streptococcus pneumoniae (GC 1894),[3],32 µg/mL
same,MIC Streptococcus pneumoniae (GC 4565),[3],64 µg/mL
same,MIC Streptococcus pyogenes (GC 4563),[3],128 µg/mL
same,MIC Streptococcus pneumoniae (ATCC 6301),"[3]; inoculum 5×10^5 CFU/mL, strain ATCC 6301",64 µg/mL
same,MIC Streptococcus pneumoniae (GC 1894),"[3]; inoculum 5×10^5 CFU/mL, strain GC 1894",32 µg/mL
same,MIC Streptococcus pyogenes (GC 4563),"[3]; inoculum 5×10^5 CFU/mL, strain GC 4563",128 µg/mL
same,MIC Streptococcus agalactiae (GC 4564),"[3]; inoculum 5×10^5 CFU/mL, strain GC 4564",128 µg/mL
same,MIC Streptococcus pneumoniae (GC 4565),"[3]; inoculum 5×10^5 CFU/mL, strain GC 4565",64 µg/mL
same,MIC Escherichia coli (ATCC 25922),[4],>128 µg/mL
same,MIC Escherichia coli (GC 4559),[4],>128 µg/mL
same,MIC Escherichia coli (GC 4560),[4],32 µg/mL
